For orientation: Ki means the equilibrium dissociation constant of an inhibitor or competing ligand from its target. A low value points to tighter binding.

The results in this text go back to patent US6090824A, “Therapeutic neurokinin receptor antagonist compounds” (Zeneca Limited, priority 1995, dated 2000).

In one assay the target is T1, human NK1 receptor (Homo sapiens, UniProt P25103).
T1 construct: expressed in transfected cells; host or cells: Mouse Erythroleukemia (MEL) cells
Put plainly: SP Receptor Binding Assay (Test A). Particulars: human NK1 receptor in MEL cells. The source says:
SP Receptor Binding Assay (Test A)
The human NK1 receptor was isolated and characterized as described in: B. Hopkins, et al. "Isolation and characterization of the human lung NK1 receptor cDNA" Biochem. Biophys. Res. Comm., 1991, 180, 1110-1117; and the NK1 receptor was expressed in Mouse Erythroleukemia (MEL) cells using a procedure similar to that described in Test B below.
(§1) The selectivity of a Compound for binding at the NK1 and the NK2 receptors may be shown by determining its binding at other receptors using standard assays, for example, one using a tritiated derivative of NKB in a tissue preparation selective for NK3 receptors.

The target in the next assay is T2, human NK2 receptor (Homo sapiens, UniProt P21452).
T2 construct: expressed in transfected cells; host or cells: Mouse Erythroleukemia (MEL) cells
T2 sequence (P21452 1-398): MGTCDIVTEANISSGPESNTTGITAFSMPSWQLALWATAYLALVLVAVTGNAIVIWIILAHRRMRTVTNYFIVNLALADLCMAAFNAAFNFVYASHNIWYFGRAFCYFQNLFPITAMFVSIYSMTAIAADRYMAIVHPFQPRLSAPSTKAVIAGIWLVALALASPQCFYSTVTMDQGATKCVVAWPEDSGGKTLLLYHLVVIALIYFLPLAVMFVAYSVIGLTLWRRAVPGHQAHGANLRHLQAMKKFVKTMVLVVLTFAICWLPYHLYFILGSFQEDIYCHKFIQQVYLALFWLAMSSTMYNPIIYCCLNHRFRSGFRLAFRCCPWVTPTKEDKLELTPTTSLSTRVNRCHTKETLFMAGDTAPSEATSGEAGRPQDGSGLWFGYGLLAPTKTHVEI
Description: Neurokinin A (NKA) Receptor Binding Assay (Test B). The settings on record: human NK2 receptor in MEL cells.
Excerpt: Neurokinin A (NKA) Receptor Binding Assay (Test B)
as §1

T1 sequence (P25103 whole entry): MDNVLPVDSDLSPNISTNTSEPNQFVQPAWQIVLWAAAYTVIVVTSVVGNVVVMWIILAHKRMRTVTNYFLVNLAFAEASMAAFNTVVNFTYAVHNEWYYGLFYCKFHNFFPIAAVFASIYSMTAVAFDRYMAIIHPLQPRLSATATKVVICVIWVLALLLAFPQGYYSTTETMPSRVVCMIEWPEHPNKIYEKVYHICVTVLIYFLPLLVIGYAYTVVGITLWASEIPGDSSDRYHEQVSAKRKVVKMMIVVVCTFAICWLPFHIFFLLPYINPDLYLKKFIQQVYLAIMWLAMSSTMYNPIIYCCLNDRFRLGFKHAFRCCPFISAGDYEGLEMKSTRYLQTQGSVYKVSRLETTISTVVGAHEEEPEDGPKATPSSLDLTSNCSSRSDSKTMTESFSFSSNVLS

For the compound `CC(=O)NC1(c2ccccc2)CCN(CCC(OC(=O)NCc2ccccc2)c2ccc(Cl)c(Cl)c2)CC1` (centres unmarked) [Example 1, N-Benzyl-3-(4-acetamido4-phenylpiperidino)-1-(3,4-dichlorophenyl)propyl carbamate], the Ki worked out at 163 nM at human NK1 receptor and 6.81 nM at human NK2 receptor.
